Results: patent publication US20230117859A1, “INHALED XENON THERAPY IN NEURODEGENERATIVE DISEASE” (The Brigham and Women`s Hospital, Inc., priority 2020, published 2023)

What was measured:
[1] = test system: platelets and red blood cells, Lymphocyte-like Jurkat cells, H9C2 and U937 cells; experiment: Anti-apoptotic effect of Xe-gas on a variety of biological cells; format: cell-based, human
Description: (§1) FIGS. 7A-D. Xe-treatment prevents apoptosis in variety of cells. A. Viability of lymphocyte-like Jurkat cell after 1 day storage. […] C. Viability of monocyte-like U-937 cells after 1 day storage. D. Viability of monocyte-like U-937 cells after 14 days storage.
(§2) It is known that Xe treatment protects neurons from apoptosis by reducing intracellular calcium, protecting mitochondrial membranes, and attenuating cell damage caused by reactive oxygen species (ROS)^28,29.

U-937 cells = experiment: Apoptosis in stored U-937 cells; format: cell-based, human; conditions: xenon vs no gas
Description: as §1, §2

[2] = test system: FCRLS+ microglia in APP/PS1 mice; experiment: RNAseq of FCRLS+ microglia from Xe-treated APP/PS1 mice; format: in vivo, mouse
Description: Based on recent findings that danger signals (dead neurons, neuritic axons and Ab peptides) alter functional phenotype of microglia from the homeostatic (M0) to neurodegenerative (MGnD) phenotype in AD, we hypothesized that Xe-gas treatment has a protective immunomodulatory role to restore homeostatic ‘sensome’ microglial functions in neurodegenerative diseases. To address whether Xe-treatment will restore functional microglia and suppress AD-like pathology in APP-PS1^30 mice, we started treatment with Xe at 2 months of age (at the onset of amyloid deposition—early stage) for 8 weeks (once a week for 40 minutes). Of note, these mice start to develop plaques at 6 weeks of age with saturation around 8 months of age. To treat mice with xenon gas we constructed a special chamber which can control supply of Xe and atmospheric gas (FIG. 3A). The closed-circuit system pumps recirculated gas through soda-lime to absorb CO2. CO2 and O2 concentrations were continuously monitored. The gas mixture was premixed in the outside container with excessive pressure. That lead to approximately 70% Xe and 20% 02 in the chamber. When 02 concentration reduced, additional gas mixture was supplied from the mixing container. The system was optimized to treat simultaneously up to 6 mice. Two types of mice were used: APP/PS1 mice and Wild Type mice as a control. The groups contained both males and females who were housed and treated separately. In each group we subjected portion of the mice to Xe treatment, and another portion was used as control by treatment with atmospheric air (FIG. 3B). We isolated FCRLS^+ microglia by FACS and performed RNAseq analysis.

[3] = test system: dN-phagocytic microglia (MG-dNΦ); experiment: Acute neurodegeneration mouse model (dead neurons injection), RNA-Sequencing of microglia; format: in vivo
Protocol: We developed a new acute neurodegeneration mouse model to induce neurodegenerative MGnD-microglia^36. In brief, primary neurons (d7-d10) were typically cultured one week after initiation of culture. Neurons were removed from the surface of the plate by multiple washed with PBS. The neurons were then incubated under UV light (302 nm) at an intensity of 6315 W for 15 minutes to induce apoptosis. After this step the neurons were kept on ice. The cells were collected, spun down via centrifugation, and resuspended in 1 ml PBS. Next they were stained with the labeling dye (Alexa405 NHS Ester, Invitrogen, A3000) for 15 min at 37° C., protected from light. Neurons were then washed, spun and resuspended. Number of apoptotic cells was determined using a trypan blue stain and a cellometer. Neurons were resuspended at a density of 50,000 cells per μl.
These apoptotic dead neurons (dN) injected into the cortex and hippocampus of naïve mice induced the recruitment of P2ry12^+ microglia towards the site of injection. P2ry12^+ microglia changed morphology from an M0-homeostatic non-phagocytic (MG-nΦ) phenotype to an amoeboid-phagocytic (MG-dNΦ) phenotype at the vicinity of the injection site. Induction of MGnD microglia was not detected in PBS-injected control brains. […] Trem2 expression has been shown previously, including by our laboratory and others, to have beneficial effect on microglia recruitment towards Aβ-plaques^61-63, associated with restriction of AD^64. Moreover, TREM2 has been recently identified as a receptor for Aβ^65. […] This provides evidence that Xe-gas treatment has a protective immunomodulatory role to induce microglia protective functions to treat AD.

[4] = test system: 6E10+ Abeta plaques and Clec7a+ MGnD microglia in APP/PS1 mice; experiment: Immunostaining of Ab load (6E10) and Clec7a+ MGnD microglia in cortex of APP/PS1 mice; format: in vivo, mouse
Protocol: APP-PS1 and WT mice were sacrificed and perfused with Hanks' Balanced Salt solution (HBSS). The mouse brains were separated, and the right hemispheres fixed in 4% PFA. After 24 hours the hemispheres were then transferred to a 30% sucrose solution for 48 hours. Brains were later frozen in Tissue-TeK O.C.T. and stored at −80 until ready to be cut. […] sagittal brain sections were cut with a cryostat and kept free floating in cryoprotectant solution. On the first day of staining, free floating brain sections were washed twice with phosphate buffered saline (PBS) and then incubated for one hour in blocking buffer (PBS, 0.1% Triton, 1% Bovine Serum Albumin, 10% Normal Horse Serum). Afterwards, the sections were incubated with primary antibody [Mouse-anti-Abeta Ab (1:1000, Biolegend, 6E10) and Rat-anti-Clec7a (1:300, Invivogen, mabg-mdect)] in pre-blocking buffer (PBS, 0.1% Triton, 1% Bovine Serum Albumin, 5% Normal Horse Serum) on a shaker overnight at 4° C. The following day, the sections were washed three times with PBS. Secondary antibodies (Donkey-anti-mouse-Cy3 (1:800, JIR, 715-165-150) and Goat-anti-Rat-647 (1:800, Invitrogen, A-21247)) in pre-blocking buffer were added to the sections for 1 hour at room temperature. After washing the sections 3 times with PBS, they were moved onto glass slides and covered with a glass coverslip and DAPI. Then images were taken by Leica DMi8 microscope. 4-6 images of prefrontal cortex with 10× magnification were taken per brain section (3 brain sections were stained per mouse, n=3-5).
For quantification of MGnD and Ab load, acquired images were imported to Fiji software (ImageJ). Then the data channels were separated. Gaussian filtering was used to remove noise. Next, the MGnD and plaques were shown using automatic thresholding methods in Fiji (with “Triangle” thresholding setting for MGnD and “Otsu” for Ab load 6E10). Finally, the percentage of the MGnD and Ab plaques over the cortical area was calculated and averaged, indicating the distribution of MGnD and Ab plaques in the prefrontal cortex.

[5] = test system: Apoe in CD68+ phagosomes in APP/PS1 mice; experiment: Apoe engulfed in CD68+ phagosomes in APP/PS1 mice; format: in vivo, mouse
Protocol: APP-PS1 and WT mice were exposed to Xenon vs. normal air in vivo for 8 weeks. After that, the mice were sacrificed and perfused with Hanks' Balanced Salt solution (HBSS). The mouse brain was separated, and the right hemisphere was fixed in 4% PFA. After 24 hours the hemisphere was then transferred to a 30% sucrose solution for 48 hours. Brains were later frozen in Tissue-TeK O.C.T. and stored at −80 until ready to be cut. […] sagittal brain sections were cut with a cryostat and kept free floating in cryoprotectant solution. On the first day of staining, free floating brain sections were washed twice with phosphate buffered saline (PBS) and then incubated for one hour in blocking buffer (PBS, 0.1% Triton, 1% Bovine Serum Albumin, 10% Normal Horse Serum). Afterwards, the sections were incubated with primary antibody [Mouse-anti-Apoe (1:1000) and Rat-anti-CD68 (1:200)] in pre-blocking buffer (PBS, 0.1% Triton, 1% Bovine Serum Albumin, 5% Normal Horse Serum) on a shaker overnight at 4° C. The following day, the sections were washed three times with PBS. […] For quantification of the percentage of Apoe engulfed in CD68^+ phagosomes, acquired images were imported to Fiji software (ImageJ). […] The overlap of the staining/CD68+ staining was quantified in both groups. […]

EAE in C57BL6 animals = experiment: Experimental autoimmune encephalomyelitis (EAE) model; format: in vivo, mouse
Protocol: FIGS. 9A-E. Xenon treatments delayed EAE symptoms. A. Scheme representative of experimental design used. C57BL6 animals were immunized with 150 ug of MOG diluted v/v in CFA followed by two doses of B. Pertussis toxin (200 ng) applied during immunization and 48 hours later. The treatment with xenon consisted of a 40 minutes exposure twice a week starting on day 0. After clinical evaluation the animals were euthanized at the peak of the disease and the frequency of inflammatory cells evaluated by flow cytometry and IHC. B. Score curve from clinical signs. C. Evaluation of microglia cells from spinal cord by flow cytometry. Gate based on population CD45+, CD11b+, Ly6C−, Clec12a−. D. T Helper cells evaluation by flow cytometry. E. Immunofluorescence of spinal cord from animals on day 17th. At top the control animals and at the bottom the animals treated with Xenon. The tissue was stained for Tmem119, Clec7a and MBP, quantification measured by the Fiji ImageJ software. Statistical analysis: T-test. In order to evaluate the effects of Xenon as a possible candidate for Multiple Sclerosis (MS) treatment, we development a new protocol of exposition. We used the experimental autoimmune encephalomyelitis (EAE) model that mimics part of the mechanisms presents in MS. The induction of this model is due to the combination of the oligodendrocyte myelin (MOG) diluted in complete Freund's adjuvant (CFA) to break immunological tolerance and initiate the development of autoimmunity in these animals. In association we give two 200 ng doses of Bordetella Pertussis toxin that helps in increasing the permeability of the blood-brain barrier allowing the entry of immune cells to the spinal cord. The treatment with xenon was divided into 5 exposures of 40 minutes divided twice a week in the concentration of 3 PSI of xenon with 1 PSI of oxygen with the oxygen and CO2 concentration constantly measured. This treatment took place from day 0 to day 15 after immunization, with the animals' euthanasia on day 17 (See FIG. 9A). The clinical evaluation started on day 8 with the clinical signs being classified into: 0 no disease, 1—limp tail, 2—weak/partially paralyzed hind legs, 3—completely paralyzed hind legs, 4—complete hind and partial front leg paralysis, 5—complete paralysis/death.

[6] = test system: cortical neurons and basal forebrain cholinergic neurons; conditions: mild excitotoxic stress by continued exposure to PDC; cited from earlier work
[7] = Xe-gas for one hour immediately after dead neurons injection

For [Xe] [Xenon], the anti-apoptotic effect [1] was “profound anti-apoptotic effect”, the “apoptosis in stored U-937 cells” value (U-937 cells) was “inhibited apoptosis” and the “cytokines induced in MGnD-microglia associated with Aβ-plaques, such as Spp1, Apoe, and Igf1” value [2] was “suppresses”. For the same compound, the Bhlhe40 in microglia ([2]; Xe once a week for 40 minutes for 8 weeks) was “significantly reduced”, the “expression of inflammatory genes including App, Lpl, IIlb, Spp1 and Apoe in microglia” value ([2]; Xe once a week for 40 minutes for 8 weeks, approx. 70% Xe and 20% O2) was “suppressed” and the “Trem2 expression in microglia” value [3, 7] was “significantly induced”. The “expression of homeostatic genes such as Siglech, Cst3, Fcgrt and Clqb” value [3, 7] was “induces expression”, the “homeostatic and phagocytosis-related genes in MG-dNΦ” value ([3]; Xenon vs. normal air in vivo, RNA-Sequencing) was “induces” and the “% positive area stained by Clec7a” value ([4]; APP/PS1 mice, cortex, compared to the control group) was “significantly decreased”. The “% cortical area of 6E10+ Abeta plaques” value ([4]; APP/PS1 mice, prefrontal cortex, compared to the control group) was “significant reduction”, the “number of plaques of different sizes” value ([4]; all groups of different plaque sizes) was “reduction in all groups” and the “number of plaques, plaque size 0-100 um2” value ([4]; plaque size 0-100 um2) was “reduction reached significance”. For the same compound, the “APOE in the plaque region” value ([5]; APP/PS1 mice) was “reduced”, the “APOE phagocytosed by CD68+ cells” value ([5]; APP/PS1 mice exposed to Xenon vs. normal air for 8 weeks) was “significant reduction” and the “clinical signs (EAE score)” value (EAE in C57BL6 animals; 5 exposures of 40 minutes twice a week, day 0 to day 15) was “delay”. The “expression of CD44 (activation marker) in T lymphocytes” value (EAE in C57BL6 animals; flow cytometry) was “tendency to lower expression”, the “frequency of IFNg in T lymphocytes” value (EAE in C57BL6 animals; flow cytometry) was “higher frequency” and the “frequency of clec7a+ cells in the spinal cord” value (EAE in C57BL6 animals; immunohistochemistry, day 17) was “decrease in the frequency”. For the same compound, the “frequency of microglial cells positive for Clec7a” value (EAE in C57BL6 animals; spinal cord, flow cytometry) was “lower frequency”, the “frequency of microglial cells positive for Tmem119, PD1 and CD206” value (EAE in C57BL6 animals; spinal cord, flow cytometry) was “tended to have a higher frequency” and the demyelination (EAE in C57BL6 animals; spinal cord, immunohistochemistry, day 17) was “tendency of less demyelination”. For the same compound, the “antiapoptotic effect on neurons in AD cell models” value [6] was “direct antiapoptotic effect”.
